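Compound exposure: 48 hours, 5 concentrations, 96-well plates. TGI: concentration producing complete growth inhibition.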
Columns and labels:
Assay in all cases: DTP human tumour cell line panel, 48 h
786-0 renal = test system: 786-0 renal
A498 renal = test system: A498 renal
A549 NSCLC = test system: A549 NSCLC
ACHN renal = test system: ACHN renal
CAKI-1 renal = test system: CAKI-1 renal
CCRF-CEM leukemia = test system: CCRF-CEM leukemia
COLO 205 colon = test system: COLO 205 colon
DLD-1 colon = test system: DLD-1 colon
DMS 114 small cell lung = test system: DMS 114 small cell lung
EKVX NSCLC = test system: EKVX NSCLC
HCC-2998 colon = test system: HCC-2998 colon
HCT-116 colon = test system: HCT-116 colon
HCT-15 colon = test system: HCT-15 colon
HL-60(TB) leukemia = test system: HL-60(TB) leukemia
HOP-18 NSCLC = test system: HOP-18 NSCLC
HOP-62 NSCLC = test system: HOP-62 NSCLC
HOP-92 NSCLC = test system: HOP-92 NSCLC
HT29 colon = test system: HT29 colon
IGROV1 ovarian = test system: IGROV1 ovarian
K-562 leukemia = test system: K-562 leukemia
KM12 colon = test system: KM12 colon
KM20L2 colon = test system: KM20L2 colon
LOX IMVI melanoma = test system: LOX IMVI melanoma
LXFL 529 NSCLC = test system: LXFL 529 NSCLC
M14 melanoma = test system: M14 melanoma
M19-MEL melanoma = test system: M19-MEL melanoma
MALME-3M melanoma = test system: MALME-3M melanoma
NCI-H226 lung = test system: NCI-H226 lung
NCI-H23 lung = test system: NCI-H23 lung
NCI-H460 lung = test system: NCI-H460 lung
NCI-H522 lung = test system: NCI-H522 lung
OVCAR-3 ovarian = test system: OVCAR-3 ovarian
OVCAR-4 ovarian = test system: OVCAR-4 ovarian
OVCAR-5 ovarian = test system: OVCAR-5 ovarian
OVCAR-8 ovarian = test system: OVCAR-8 ovarian
RXF 393 renal = test system: RXF 393 renal
RXF-631 renal = test system: RXF-631 renal
SF-268 CNS = test system: SF-268 CNS
SF-295 CNS = test system: SF-295 CNS
SF-539 CNS = test system: SF-539 CNS
SK-MEL-28 melanoma = test system: SK-MEL-28 melanoma
SK-MEL-5 melanoma = test system: SK-MEL-5 melanoma
SK-OV-3 ovarian = test system: SK-OV-3 ovarian
SN12C renal = test system: SN12C renal
SNB-19 CNS = test system: SNB-19 CNS
SNB-75 CNS = test system: SNB-75 CNS
SNB-78 CNS = test system: SNB-78 CNS
SR leukemia = test system: SR leukemia
SW-620 colon = test system: SW-620 colon
TK-10 renal = test system: TK-10 renal
U251 CNS = test system: U251 CNS
UACC-257 melanoma = test system: UACC-257 melanoma
UACC-62 melanoma = test system: UACC-62 melanoma
UO-31 renal = test system: UO-31 renal
XF 498 CNS = test system: XF 498 CNS
DMS 273 small cell lung = test system: DMS 273 small cell lung
MOLT-4 leukemia = test system: MOLT-4 leukemia
RPMI-8226 leukemia = test system: RPMI-8226 leukemia
SK-MEL-2 melanoma = test system: SK-MEL-2 melanoma

Measured: TGI

N#Cc1ccccc1NC(=O)C(=O)C(C(=O)c1ccncc1)C1OC(=O)c2ccccc21 (stereo unspecified)
not listed: DMS 273 small cell lung | MOLT-4 leukemia | RPMI-8226 leukemia | SK-MEL-2 melanoma
> 100 µM: all other assays above

COc1ccccc1NC(=O)C1=C(C)NC(C)=C(C(=O)Nc2ccccc2OC)C1c1ccccc1Cl
not listed: NCI-H522 lung | RXF 393 renal | SNB-78 CNS
> 100 µM: all other assays above
